For one molecule, IC50 results are on record in BindingDB's records for doi:10.1016/j.bmcl.2006.05.062 (AstraZeneca, 2006).

The nature of the test: Inhibition of COX1-mediated platelet aggregation.

Take `COc1ccc2c(c1)c(CC(=O)O)c(C)n2-c1ccnc2cc(Cl)ccc12` [2-(1-(7-chloroquinolin-4-yl)-5-methoxy-2-methyl-1H-indol-3-yl)acetic acid]: it took 0.04 µM to reach half-maximal inhibition (IC50).

What is called IC50 is the concentration needed to halve the response being measured. A lower IC50 goes with greater potency.
